Measured values taken from ChEMBL document CHEMBL3612012, “Identification of orally-bioavailable antagonists of the TRPV4 ion-channel” (Bioorg Med Chem Lett, 2015).
Values after ≈ are worked out from the molar mass of the structure shown. Blank lines part the entries; values can stand above or below the compound they belong to.

Experiments:
[1] = molecular target: Transient receptor potential cation channel subfamily V member 4 (Homo sapiens, UniProt Q9HBA0); test: Antagonist activity at human TRPV4 receptor expressed in HEK293 cells assessed as inhibition of EC80 of 4alpha-PDD-stimulated calcium flux after 10 mins; assay type: cell-based
[2] = molecular target: Transient receptor potential cation channel subfamily V member 4 (Rattus norvegicus, UniProt Q9ERZ8); test: Antagonist activity at rat TRPV4 receptor expressed in HEK293 cells assessed as inhibition of EC80 of 4alpha-PDD-stimulated calcium flux after 10 mins; assay type: cell-based
[3] = Cmax in Wistar rat at 1.80 mg/kg, po; assay type: ADME, organism-based; design: dose 1.8 mg/kg, route oral; details: in vivo, 1.8 mg/kg
[4] = Oral bioavailability in Wistar rat at 1.80 mg/kg; assay type: ADME, organism-based; details: in vivo, 1.8 mg/kg
[5] = Plasma protein binding in human; assay type: ADME, cell-free; details: read-out: PPB (converted)
[6] = Half life in Wistar rat at 1.05 mg/kg, iv; assay type: ADME, organism-based; details: in vivo
[7] = Clearance in Wistar rat at 1.05 mg/kg, iv; assay type: ADME, organism-based; details: in vivo
[8] = AUC (infinity) in Wistar rat at 1.80 mg/kg, po; assay type: ADME, organism-based; design: dose 1.8 mg/kg, time infinity, route oral; details: in vivo, 1.8 mg/kg
[9] = Volume of distribution at steady state in Wistar rat at 1.05 mg/kg, iv; assay type: ADME, organism-based; details: in vivo, read-out: Vdss
[10] = Plasma protein binding in rat; assay type: ADME, cell-free; details: read-out: PPB (converted)
[11] = AUC (infinity) in Wistar rat at 1.05 mg/kg, iv; assay type: ADME, organism-based; design: dose 1.05 mg/kg, route intravenous, time infinity; details: in vivo
[12] = Solubility of the compound at pH 7.4; assay type: physicochemical; details: buffer

Transient receptor potential cation channel subfamily V member 4 (Rattus norvegicus, UniProt Q9ERZ8), sequence (Q9ERZ8 whole entry): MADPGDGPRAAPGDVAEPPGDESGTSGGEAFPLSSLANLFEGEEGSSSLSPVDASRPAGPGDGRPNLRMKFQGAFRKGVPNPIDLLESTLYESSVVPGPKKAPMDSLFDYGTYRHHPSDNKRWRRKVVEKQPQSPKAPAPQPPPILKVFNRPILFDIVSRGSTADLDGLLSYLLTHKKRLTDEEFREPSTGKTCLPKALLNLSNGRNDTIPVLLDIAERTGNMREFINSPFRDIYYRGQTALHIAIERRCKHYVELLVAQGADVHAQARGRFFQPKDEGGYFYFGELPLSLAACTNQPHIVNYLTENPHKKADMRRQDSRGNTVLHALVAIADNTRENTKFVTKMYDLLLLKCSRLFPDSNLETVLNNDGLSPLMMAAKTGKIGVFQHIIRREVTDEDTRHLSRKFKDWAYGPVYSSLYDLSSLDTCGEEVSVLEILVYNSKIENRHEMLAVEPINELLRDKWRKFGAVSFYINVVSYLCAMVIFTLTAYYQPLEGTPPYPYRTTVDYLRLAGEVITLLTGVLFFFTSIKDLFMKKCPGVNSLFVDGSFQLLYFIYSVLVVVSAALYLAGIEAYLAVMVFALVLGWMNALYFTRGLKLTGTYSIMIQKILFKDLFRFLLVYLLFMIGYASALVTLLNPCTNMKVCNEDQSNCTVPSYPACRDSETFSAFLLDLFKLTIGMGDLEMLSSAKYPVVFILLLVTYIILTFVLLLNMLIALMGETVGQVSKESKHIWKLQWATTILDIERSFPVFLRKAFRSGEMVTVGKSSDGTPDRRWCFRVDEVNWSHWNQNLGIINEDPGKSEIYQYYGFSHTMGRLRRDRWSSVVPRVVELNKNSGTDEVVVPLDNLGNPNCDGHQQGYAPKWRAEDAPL
Transient receptor potential cation channel subfamily V member 4 (Homo sapiens, UniProt Q9HBA0), sequence (Q9HBA0 whole entry): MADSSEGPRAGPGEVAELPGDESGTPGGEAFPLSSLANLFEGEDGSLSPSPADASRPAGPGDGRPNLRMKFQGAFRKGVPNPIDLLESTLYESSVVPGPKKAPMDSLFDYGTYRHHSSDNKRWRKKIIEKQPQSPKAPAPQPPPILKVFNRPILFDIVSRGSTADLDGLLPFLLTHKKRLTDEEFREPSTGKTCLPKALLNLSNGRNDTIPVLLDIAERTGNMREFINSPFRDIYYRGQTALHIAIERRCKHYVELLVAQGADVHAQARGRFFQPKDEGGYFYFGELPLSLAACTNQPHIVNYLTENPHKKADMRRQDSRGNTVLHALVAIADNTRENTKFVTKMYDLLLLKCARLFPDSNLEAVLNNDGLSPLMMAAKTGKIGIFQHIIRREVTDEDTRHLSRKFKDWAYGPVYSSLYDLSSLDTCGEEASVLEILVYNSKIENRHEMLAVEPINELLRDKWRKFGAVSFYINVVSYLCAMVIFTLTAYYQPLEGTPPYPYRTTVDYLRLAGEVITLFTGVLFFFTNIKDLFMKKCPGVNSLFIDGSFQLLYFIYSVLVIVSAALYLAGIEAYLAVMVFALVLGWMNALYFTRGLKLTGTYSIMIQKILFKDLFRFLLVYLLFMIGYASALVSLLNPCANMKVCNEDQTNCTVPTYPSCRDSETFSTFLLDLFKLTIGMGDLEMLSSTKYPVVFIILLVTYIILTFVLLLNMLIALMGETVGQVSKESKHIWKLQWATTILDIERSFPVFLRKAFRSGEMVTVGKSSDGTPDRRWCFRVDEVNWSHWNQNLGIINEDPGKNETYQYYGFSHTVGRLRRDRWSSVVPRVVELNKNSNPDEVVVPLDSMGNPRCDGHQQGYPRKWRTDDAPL

SMILES: CC(C)N1CCCN(S(=O)(=O)c2ccc(NC(=O)c3ccc(C(F)(F)F)cc3)cc2)CC1
IC50 [1]: 1320 nM

SMILES: CN(C)S(=O)(=O)c1ccc(NC(=O)c2ccc(C(F)(F)F)cc2)cc1
IC50 [2]: 5740 nM | IC50 [1]: 4220 nM

SMILES: CC(C)N1CCN(S(=O)(=O)c2ccc(NC(=O)c3ccc(S(F)(F)(F)(F)F)cc3)cc2)CC1
Cmax [3]: 143 ng/mL | bioavailability [4]: 22.7% | fraction unbound [5]: 0.0008 | half-life [6]: 1.03 h | IC50 [2]: 390 nM | clearance [7]: 22.5 mL/min/kg | AUC(0-inf) [8]: 303 ng·h/mL | Vd [9]: 2.01 L/kg | IC50 [1]: 260 nM | fraction unbound [10]: 0.0009 | AUC(0-inf) [11]: 779 ng·h/mL | solubility [12]: 0.15 µM (≈ 0.077 µg/mL)

SMILES: CC(C)N1CCN(S(=O)(=O)c2ccc(NC(=O)c3ccc(C(F)(F)F)cc3)cc2)CC1
IC50 [2]: 940 nM | IC50 [1]: 710 nM

SMILES: O=C(Nc1ccc(S(=O)(=O)N2CCN(C3CCCC3)CC2)cc1)c1ccc(C(F)(F)F)cc1
IC50 [1]: 800 nM

SMILES: CC(C)N1CCN(C(=O)c2ccc(NC(=O)c3ccc(C(F)(F)F)cc3)cc2)CC1
IC50 [2]: > 10000 nM | IC50 [1]: > 10000 nM

SMILES: CC(C)N1CCN(S(=O)(=O)c2ccc(NC(=O)c3ccc(C(F)(F)F)cc3F)cc2)CC1
IC50 [2]: 370 nM | IC50 [1]: 380 nM

SMILES: CCN(CC)C1CCN(S(=O)(=O)c2ccc(NC(=O)c3ccc(C(F)(F)F)cc3)cc2)CC1
IC50 [1]: 910 nM

SMILES: CC(C)N1CCN(S(=O)(=O)c2ccc(NC(=O)c3ccc(C(F)(F)F)cc3N)cc2)CC1
IC50 [2]: 2920 nM | IC50 [1]: 930 nM

SMILES: CC(C)N1CCN(S(=O)(=O)c2ccc(NC(=O)c3ccc(C(F)(F)F)cc3C(F)(F)F)cc2)CC1
IC50 [2]: 490 nM | IC50 [1]: 540 nM

SMILES: CN(C)C1CCN(S(=O)(=O)c2ccc(NC(=O)c3ccc(C(F)(F)F)cc3)cc2)CC1
IC50 [1]: 2110 nM

SMILES: CC(C)N1CCN(S(=O)(=O)c2ccc(NC(=O)c3ccc(-c4ncccc4Cl)cc3)cc2)CC1
IC50 [2]: 3900 nM | IC50 [1]: 930 nM

Results, then the compound that gave them:

IC50 [2]: > 10000 nM | IC50 [1]: > 10000 nM
SMILES: CC(C)N1CCN(S(=O)(=O)c2ccc(NS(=O)(=O)c3ccc(C(F)(F)F)cc3)cc2)CC1

IC50 [2]: 6490 nM | IC50 [1]: 4930 nM
SMILES: CC(C)N1CCN(S(=O)(=O)c2ccc(NC(=O)c3ccc(-c4ccccn4)cc3)cc2)CC1

IC50 [2]: 4300 nM | IC50 [1]: 8530 nM
SMILES: CC(C)N1CCN(S(=O)(=O)c2ccc(NC(=O)c3ccccc3)cc2)CC1

IC50 [2]: 1050 nM | IC50 [1]: 390 nM
SMILES: CC(C)N1CCN(S(=O)(=O)c2ccc(NC(=O)c3ccc(C(C)(C)C)cc3)cc2)CC1

IC50 [2]: 1940 nM | IC50 [1]: 2170 nM
SMILES: CC(C)N1CCN(S(=O)(=O)c2ccc(NC(=O)c3cccc(C(F)(F)F)c3)cc2)CC1

IC50 [1]: 1280 nM
SMILES: CCN(C)C1CCN(S(=O)(=O)c2ccc(NC(=O)c3ccc(C(F)(F)F)cc3)cc2)CC1
